Measurements from PMC11003491 (Journal of Enzyme Inhibition and Medicinal Chemistry, 2023).

Experiments:
MCF-7 = settings: read-out: cytotoxicity against MCF-7 IC50; cited from earlier work
breast MCF7 cells = test: Cell cycle analysis by flow cytometry; format: cell-based, human; settings: MCF7, compound at IC50 concentration, 24 h
MCF7 breast cells = test: Apoptosis by Annexin-V-FITC/PI flow cytometry; format: cell-based, human; settings: MCF7, compound at IC50, 24 h
EGFR-WT = EGFR-WT (Homo sapiens, UniProt P00533); test: biochemical; settings: EGFR WT IC50, five concentrations
Chain of EGFR-WT (P00533 25-1210): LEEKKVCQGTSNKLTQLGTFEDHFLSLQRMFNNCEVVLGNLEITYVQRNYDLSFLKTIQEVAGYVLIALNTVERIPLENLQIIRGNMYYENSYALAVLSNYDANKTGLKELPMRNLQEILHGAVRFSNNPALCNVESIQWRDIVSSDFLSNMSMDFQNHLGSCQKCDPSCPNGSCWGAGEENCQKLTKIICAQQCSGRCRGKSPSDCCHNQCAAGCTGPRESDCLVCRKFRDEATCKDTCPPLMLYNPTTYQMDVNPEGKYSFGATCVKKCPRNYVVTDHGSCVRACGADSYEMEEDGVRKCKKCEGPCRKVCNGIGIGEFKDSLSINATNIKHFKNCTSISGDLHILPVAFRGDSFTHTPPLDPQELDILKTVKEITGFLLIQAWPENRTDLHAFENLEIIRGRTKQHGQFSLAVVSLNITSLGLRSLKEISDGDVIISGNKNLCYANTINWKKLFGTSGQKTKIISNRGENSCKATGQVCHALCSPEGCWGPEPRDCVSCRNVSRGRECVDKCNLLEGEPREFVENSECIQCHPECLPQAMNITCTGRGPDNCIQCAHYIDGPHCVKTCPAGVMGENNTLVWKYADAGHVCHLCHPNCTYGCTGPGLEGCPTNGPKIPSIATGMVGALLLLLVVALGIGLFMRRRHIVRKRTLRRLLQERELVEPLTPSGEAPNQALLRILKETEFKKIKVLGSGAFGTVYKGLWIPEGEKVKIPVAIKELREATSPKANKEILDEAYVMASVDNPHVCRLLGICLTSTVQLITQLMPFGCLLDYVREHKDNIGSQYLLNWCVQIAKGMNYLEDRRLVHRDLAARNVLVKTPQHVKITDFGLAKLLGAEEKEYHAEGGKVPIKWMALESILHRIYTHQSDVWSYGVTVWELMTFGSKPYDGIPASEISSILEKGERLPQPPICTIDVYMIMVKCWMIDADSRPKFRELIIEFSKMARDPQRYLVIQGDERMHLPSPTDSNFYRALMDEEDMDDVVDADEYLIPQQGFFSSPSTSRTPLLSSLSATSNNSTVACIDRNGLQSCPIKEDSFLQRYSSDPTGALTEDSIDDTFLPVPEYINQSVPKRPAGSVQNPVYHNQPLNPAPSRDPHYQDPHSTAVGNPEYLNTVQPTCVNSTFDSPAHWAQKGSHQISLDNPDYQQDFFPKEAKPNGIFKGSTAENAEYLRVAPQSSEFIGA

HER-2 = HER-2 (Homo sapiens, UniProt P04626); test: HER-2 Kinase Assay Kit; format: biochemical
Chain of HER-2 (P04626 23-1255): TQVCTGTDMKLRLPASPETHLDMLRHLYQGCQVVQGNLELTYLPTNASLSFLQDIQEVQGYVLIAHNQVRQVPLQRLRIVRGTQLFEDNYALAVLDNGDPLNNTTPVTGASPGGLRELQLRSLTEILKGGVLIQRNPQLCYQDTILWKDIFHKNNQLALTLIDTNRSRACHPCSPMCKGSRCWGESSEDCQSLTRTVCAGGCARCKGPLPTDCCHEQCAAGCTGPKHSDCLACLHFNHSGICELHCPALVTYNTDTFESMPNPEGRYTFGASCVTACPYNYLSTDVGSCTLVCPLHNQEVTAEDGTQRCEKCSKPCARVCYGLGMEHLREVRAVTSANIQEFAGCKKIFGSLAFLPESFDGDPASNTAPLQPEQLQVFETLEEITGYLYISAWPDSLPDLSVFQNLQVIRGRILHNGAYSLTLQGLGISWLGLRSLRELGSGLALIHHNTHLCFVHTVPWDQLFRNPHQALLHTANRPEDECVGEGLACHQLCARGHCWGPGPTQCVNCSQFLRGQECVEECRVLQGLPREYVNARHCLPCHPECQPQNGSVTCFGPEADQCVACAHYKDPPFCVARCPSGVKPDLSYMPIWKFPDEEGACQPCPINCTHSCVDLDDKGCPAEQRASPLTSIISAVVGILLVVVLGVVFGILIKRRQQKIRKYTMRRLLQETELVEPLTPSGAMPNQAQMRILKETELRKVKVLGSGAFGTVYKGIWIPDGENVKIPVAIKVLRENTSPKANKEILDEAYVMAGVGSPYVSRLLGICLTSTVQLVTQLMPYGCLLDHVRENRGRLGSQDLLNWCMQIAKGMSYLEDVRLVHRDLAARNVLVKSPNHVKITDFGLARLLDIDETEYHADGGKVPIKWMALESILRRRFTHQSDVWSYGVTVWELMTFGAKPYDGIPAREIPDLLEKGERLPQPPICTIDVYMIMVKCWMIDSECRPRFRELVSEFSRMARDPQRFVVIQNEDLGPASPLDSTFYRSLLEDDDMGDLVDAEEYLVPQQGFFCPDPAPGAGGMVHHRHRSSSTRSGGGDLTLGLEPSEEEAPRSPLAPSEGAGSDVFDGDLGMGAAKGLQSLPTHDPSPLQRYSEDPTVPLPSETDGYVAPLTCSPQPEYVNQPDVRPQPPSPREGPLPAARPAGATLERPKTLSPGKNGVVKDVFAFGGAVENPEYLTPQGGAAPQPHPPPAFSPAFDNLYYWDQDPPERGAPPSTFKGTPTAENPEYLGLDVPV

[1] = system: A549 small lung cancer cell line; test: MTT cell viability assay, A549; format: cell-based; settings: Homo sapiens, A549, 48 h, read-out: A549 IC50, MTT, 48 h, mean of six values

IC50 (EGFR-WT)	IC50 (HER-2)	IC50 [1]	Structure (SMILES)	IC50 (MCF-7)	%G0–G1 (breast MCF7 cells)	%G2-M (breast MCF7 cells)	Apoptosis Early (MCF7 breast cells)	Apoptosis Late (MCF7 breast cells)	Necrosis (MCF7 breast cells)
			C#Cc1cccc(Nc2ncnc3cc(OCCOC)c(OCCOC)cc23)c1 [erlotinib]	20 nM					
388 nM	195 nM		COc1ccc(-c2nn(-c3ccc(S(C)(=O)=O)cc3)cc2C=N/N=c2\[nH]c(-c3ccc([N+](=O)[O-])cc3)cs2)cc1 [Compound 18d, (E and Z)-2-((E)-((3–(4-methoxyphenyl)-1–(4-(methylsulfonyl)phenyl)-1H-pyrazol-4-yl)methylene)hydrazono)-4–(4-nitrophenyl)-2,3-dihydrothiazole]		62.43%	4.39%	12.58%	27.45%	6.52%
226 nM	144 nM		COc1ccc(-c2nn(-c3ccc(S(C)(=O)=O)cc3)cc2/C=N/N=c2\[nH]c(-c3ccc(Br)cc3)cs2)cc1 [Compound 18c, (E)-4–(4-bromophenyl)-2-((E)-((3–(4-methoxyphenyl)-1–(4-(methylsulfonyl)phenyl)-1H-pyrazol-4-yl)methylene)hydrazono)-2,3-dihydrothiazole]						
190 nM	201 nM	1640 to 14300 nM	CC(C)Cc1ccc(-c2nn(-c3ccc(S(C)(=O)=O)cc3)cc2/C=N/N=c2\[nH]c(-c3ccc([N+](=O)[O-])cc3)cs2)cc1 [Compound 18f, (E)-2-((E)-((3–(4-isobutylphenyl)-1–(4-(methylsulfonyl)phenyl)-1H-pyrazol-4-yl)methylene)hydrazono)-4–(4-nitrophenyl)-2,3-dihydrothiazole]						
